Laboratory results as given in ChEMBL document CHEMBL4673302, “Efficient synthesis and antitumor evaluation of 4-aminomethyl-N-arylpyrazoles: Discovery of potent and selective agents for ovarian cancer” (Bioorg Med Chem, 2021).

Experiments:
U-251 = assay: Anticancer activity against human U-251 cells assessed as cell growth inhibition measured after 48 hrs by sulforhodamine B assay; type: functional
MCF7 = assay: Anticancer activity against human MCF7 cells assessed as cell growth inhibition measured after 48 hrs by sulforhodamine B assay; type: functional
786-0 = assay: Anticancer activity against human 786-0 cells assessed as cell growth inhibition measured after 48 hrs by sulforhodamine B assay; type: functional
NCI-H460 = assay: Anticancer activity against human NCI-H460 cells assessed as cell growth inhibition measured after 48 hrs by sulforhodamine B assay; type: functional
PC-3 = assay: Anticancer activity against human PC-3 cells assessed as cell growth inhibition measured after 48 hrs by sulforhodamine B assay; type: functional
OVCAR-3 = assay: Anticancer activity against human OVCAR-3 cells assessed as cell growth inhibition measured after 48 hrs by sulforhodamine B assay; type: functional; conditions: 48 h
HT-29 = assay: Anticancer activity against human HT-29 cells assessed as cell growth inhibition measured after 48 hrs by sulforhodamine B assay; type: functional
K562 = assay: Anticancer activity against human K562 cells assessed as cell growth inhibition measured after 48 hrs by sulforhodamine B assay; type: functional; conditions: 48 h
HaCaT = assay: Cytotoxicity against human HaCaT cells assessed as cell growth inhibition measured after 48 hrs by sulforhodamine B assay; type: cell-based; conditions: hacat, 48 h

GI50 (U-251; 48 h) [µM] | GI50 (MCF7; 48 h) [µM] | GI50 (786-0; 48 h) [µM] | GI50 (NCI-H460; 48 h) [µM] | GI50 (PC-3; 48 h) [µM] | GI50 (OVCAR-3) [µM] | GI50 (HT-29; 48 h) [µM] | GI50 (K562) [µM] | GI50 (786-0; Homo sapiens, 786-0, 48 h) [µM] | GI50 (NCI-H460; Homo sapiens, NCI-H460, 48 h) [µM] | GI50 (HT-29; Homo sapiens, HT-29, 48 h) [µM] | GI50 (U-251; Homo sapiens, U-251, 48 h) [µM] | GI50 (MCF7; Homo sapiens, MCF7, 48 h) [µM] | GI50 (PC-3; Homo sapiens, PC-3, 48 h) [µM] | SMILES | GI50 (HaCaT) [µM]
151 | 141 | – | – | 249 | 49.2 | 106 | 106 | > 588 | 277 | – | – | – | – | CCOC(=O)c1nn(-c2ccc(Cl)cc2)c(-c2ccc(C)cc2)c1CNC(C)(C)C [listing 1 of 2 here] | 144
> 476 | > 476 | > 476 | > 476 | > 476 | > 476 | > 476 | > 476 | – | – | – | – | – | – | CCOC(=O)c1nn(-c2ccc(Cl)cc2)c(-c2ccc(Br)cc2)c1CNC(C)(C)C | > 476
– | 238 | 119 | 27 | 210 | 35.4 | 45.3 | 6.1 | – | – | – | 431 | – | – | CCOC(=O)c1nn(-c2ccc(Cl)cc2)c(-c2ccc(OC)cc2)c1CNC(C)(C)C [listing 1 of 2 here] | 60.1
> 542 | > 542 | > 542 | > 542 | > 542 | > 542 | > 542 | > 542 | – | – | – | – | – | – | CCOC(=O)c1nn(-c2ccc(Cl)cc2)c(-c2ccc(C)cc2)c1CNC(C)(C)C [listing 2 of 2 here] | > 542
6.4 | 120 | 73.7 | 144 | 196 | 21.6 | 57.7 | 11.2 | – | – | – | – | – | – | CCOC(=O)c1nn(-c2ccc(Cl)cc2)c(-c2ccc(Cl)cc2)c1CNC(C)(C)C | 2.9
> 524 | > 524 | > 524 | > 524 | > 524 | > 524 | > 524 | > 524 | – | – | – | – | – | – | CCOC(=O)c1nn(-c2ccc(Cl)cc2)c(-c2ccc(OC)cc2)c1CNC(C)(C)C [listing 2 of 2 here] | > 524
> 538 | > 538 | > 538 | > 538 | > 538 | > 538 | > 538 | > 538 | – | – | – | – | – | – | CCOC(=O)c1nn(-c2ccc(Cl)cc2)c(-c2ccc(F)cc2)c1CNC(C)(C)C [listing 1 of 2 here] | > 538
– | – | – | – | – | 159 | 87.1 | 78.5 | > 582 | 344 | – | 519 | > 582 | 405 | CCOC(=O)c1nn(-c2ccc(Cl)cc2)c(-c2ccc(F)cc2)c1CNC(C)(C)C [listing 2 of 2 here] | 24.7

The remaining lines, values behind:

SMILES | GI50 (U-251; 48 h) [µM] | GI50 (MCF7; 48 h) [µM] | GI50 (786-0; 48 h) [µM] | GI50 (NCI-H460; 48 h) [µM] | GI50 (PC-3; 48 h) [µM] | GI50 (OVCAR-3) [µM] | GI50 (HT-29; 48 h) [µM] | GI50 (K562) [µM] | GI50 (786-0; Homo sapiens, 786-0, 48 h) [µM] | GI50 (NCI-H460; Homo sapiens, NCI-H460, 48 h) [µM] | GI50 (HT-29; Homo sapiens, HT-29, 48 h) [µM] | GI50 (U-251; Homo sapiens, U-251, 48 h) [µM] | GI50 (MCF7; Homo sapiens, MCF7, 48 h) [µM] | GI50 (PC-3; Homo sapiens, PC-3, 48 h) [µM] | GI50 (HaCaT) [µM]
CCOC(=O)c1nn(-c2ccc(Cl)cc2)c(-c2ccc([N+](=O)[O-])cc2)c1CNC(C)(C)C [listing 1 of 2 here] | 340 | 205 | 51.2 | 52.8 | 304 | 16.1 | 40.8 | 14.8 | – | – | – | – | – | – | 145
CCOC(=O)c1nn(-c2ccccc2)c(-c2ccc(Cl)cc2)c1CNC(C)(C)C [listing 1 of 2 here] | > 559 | > 559 | > 559 | > 559 | > 559 | > 559 | > 559 | > 559 | – | – | – | – | – | – | > 559
CCOC(=O)c1nn(-c2ccccc2)c(-c2ccccc2)c1CNC(C)(C)C [listing 1 of 2 here] | 81.5 | 81.7 | 144 | 76.9 | 39.9 | 1.01 | – | 9.62 | – | – | 69.6 | – | – | – | 77
CCOC(=O)c1nn(-c2ccc(Cl)cc2)c(-c2ccccc2)c1CNC(C)(C)C | > 559 | > 559 | > 559 | > 559 | > 559 | > 559 | > 559 | > 559 | – | – | – | – | – | – | > 559
CCOC(=O)c1nn(-c2ccccc2)c(-c2ccc(Cl)cc2)c1CNC(C)(C)C [listing 2 of 2 here] | 73.8 | 72.4 | 86.7 | 69.2 | 28.6 | 0.134 | 58.5 | 57.6 | – | – | – | – | – | – | 63.5
CCOC(=O)c1nn(-c2ccccc2)c(-c2ccc(F)cc2)c1CNC(C)(C)C [listing 1 of 2 here] | – | – | – | 365 | – | 0.013 | 65.4 | 75.7 | > 632 | – | – | > 632 | 306 | 69.3 | 74.5
CCOC(=O)c1nn(-c2ccccc2)c(-c2ccc(C)cc2)c1CNC(C)(C)C [listing 1 of 2 here] | 65.4 | 78.2 | 86.1 | 75.2 | 59.9 | 0.054 | 68.1 | 11.3 | – | – | – | – | – | – | 72.1
CCOC(=O)c1nn(-c2ccccc2)c(-c2ccc(OC)cc2)c1CNC(C)(C)C [listing 1 of 2 here] | 134 | 116 | 537 | – | 530 | 0.047 | – | 66.6 | – | 119 | 61.3 | – | – | – | 68.3
CCOC(=O)c1nn(-c2ccccc2)c(-c2ccccc2)c1CNC(C)(C)C [listing 2 of 2 here] | 440 | 504 | 42.4 | 195 | 91.7 | 195 | 94.6 | 113 | – | – | – | – | – | – | 13.3
CCOC(=O)c1nn(-c2ccccc2)c(-c2ccc(Br)cc2)c1CNC(C)(C)C [listing 1 of 2 here] | > 509 | > 509 | > 509 | > 509 | > 509 | > 509 | > 509 | > 509 | – | – | – | – | – | – | > 509
CCOC(=O)c1nn(-c2ccccc2)c(-c2ccc(C)cc2)c1CNC(C)(C)C [listing 2 of 2 here] | > 585 | > 585 | > 585 | > 585 | > 585 | > 585 | > 585 | > 585 | – | – | – | – | – | – | > 585
CCOC(=O)c1nn(-c2ccccc2)c(-c2ccc(F)cc2)c1CNC(C)(C)C [listing 2 of 2 here] | > 580 | 517 | 319 | 179 | 82.1 | 92.1 | 29.9 | 161 | – | – | – | – | – | – | 32.9
CCOC(=O)c1nn(-c2ccc(Cl)cc2)c(-c2ccc([N+](=O)[O-])cc2)c1CNC(C)(C)C [listing 2 of 2 here] | – | > 548 | 316 | > 548 | – | 206 | – | 181 | – | – | 42.3 | > 548 | – | > 548 | 10.3
CCOC(=O)c1nn(-c2ccccc2)c(-c2ccc(Br)cc2)c1CNC(C)(C)C [listing 2 of 2 here] | 71.9 | 74.2 | 83.9 | 118 | 15.9 | 2.91 | 21.8 | 22 | – | – | – | – | – | – | 61.7
CCOC(=O)c1nn(-c2ccccc2)c(-c2ccc([N+](=O)[O-])cc2)c1CNC(C)(C)C | > 546 | 168 | > 546 | 327 | 128 | 288 | 35.1 | 191 | – | – | – | – | – | – | 130
CCOC(=O)c1nn(-c2ccccc2)c(-c2ccc(OC)cc2)c1CNC(C)(C)C [listing 2 of 2 here] | 527 | 244 | 166 | 148 | 245 | 17.1 | 44.2 | 29.8 | – | – | – | – | – | – | 19.2
